Source: patent publication US20080269162A1, “Novel Medicaments for Anti-Retroviral Treatments” (priority 2006, published 2008)
Where “and” joins values, the source holds several entries; their conditions need not be identical. Equal values may be shown once.

Experiments:
Assay type in all cases: cell-based, HIV
BRU virus (clade B) = experiment: Number of syncitia in MT4 cell culture infected by BRU virus; design: key: the absence of syncitia is indicated by a minus (−) sign; the (+), +, ++, ++T signs indicate an increasing number of syncitia in each well; the (+), +, ++, ++T signs indicate an increasing number of syncitia in each well; the (+), +, ++, ++T signs indicate an increasing number of syncitia in each well; the (+), +, ++, ++T signs indicate an increasing number of syncitia in each well; The indication “T” indicates the death of the cells; details: 0.01 μM; for Number of Syncitia in the Culture (wells), J3: day 3; for Number of Syncitia in the Culture (wells), J4: day 4; for Number of Syncitia in the Culture (wells), J5: day 5; for Number of Syncitia in the Culture (wells), J6: day 6; for Number of Syncitia in the Culture (wells), J7: day 7
Experimental: either by the observation, as a function of the quantity of sulphated polysaccharide used and of the time of said use, which can be made before, during or after infection, or even continuously, and of the reduction of the number of syncitia appearing in a culture of MT4 cells following infection by a HIV retrovirus (example 2A),
(§1) Then infection of the cells was carried out by adding to each well, with the exception of those wells being used as control cells, 50 μL of previously titrated virus dilution.
(§2) After an additional hour of incubation, the plate was centrifuged and the supernatant containing the residual virus was discarded.
(§3) After 3 days of culture, the cells were diluted to half and the syncitia were observed using the inverse microscope from day 3 to day 7 after having been placed in suspension.
(§4) In the third case, the MT4 cell culture was preincubated for one hour at 37° C., then the cells were infected, the whole was subjected to incubation for one hour at 37° C., then to centrifugation with the elimination of the supernatant containing the virus that had not penetrated into the cells.
The washings and rinsings were done using RPMI without foetal calf serum.
(§5) In each of the four types of experiments that have just been described, and as previously indicated, the cells were diluted to half after three days of culture and then the syncitia were observed using the inverted microscope from day 3 to day 7.
(§6) In the experiments described in greater detail hereinafter, the absence of syncitia is indicated by a minus (−) sign and the (+), +, ++, ++T signs indicate an increasing number of syncitia in each well.
(§7) The indication “T” indicates the death of the cells.
The BRU virus (clade B) was used for infecting the MT4 cells at a viral dilution of 10^5, which corresponds to the quantity of viral particles capable of infecting 80% of the MT4 cultures (Tissue Culture Infections Dose 80%, TCID80%).

NDK virus = experiment: Number of syncitia in MT4 cell culture infected by NDK virus; design: key to Number of Syncitia in the Culture (wells), J3 / Number of Syncitia in the Culture (wells), J4 / Number of Syncitia in the Culture (wells), J5 / Number of Syncitia in the Culture (wells), J6: the absence of syncitia is indicated by a minus (−) sign; the (+), +, ++, ++T signs indicate an increasing number of syncitia in each well; the (+), +, ++, ++T signs indicate an increasing number of syncitia in each well; the (+), +, ++, ++T signs indicate an increasing number of syncitia in each well; the (+), +, ++, ++T signs indicate an increasing number of syncitia in each well; The indication “T” indicates the death of the cells; details: for Number of Syncitia in the Culture (wells), J3: day 3; for Number of Syncitia in the Culture (wells), J4: day 4; for Number of Syncitia in the Culture (wells), J5: day 5; for Number of Syncitia in the Culture (wells), J6: day 6
Experimental: as §1, §2, §3, §4, §5, §6, §7

[1] = test system: RTMC virus (clade B), resistant to AZT; experiment: RT activity in supernatant and cell number of CEM cells infected by RTMC virus; details: 0.1 μM, RMTC viral dilution 5 · 10^−4
Experimental: The cells were counted every three days and the cultures diluted with a view of culturing 0.5*10^6 cells/mL; the RT activity assay was done following a protocol comprising:
measurement of the radioactivity of the DNA synthesized, said radioactivity being proportional to the quantity of tritiated thymidine incorporated into said synthesized DNA, which itself is proportional to RT activity and thus to the number of viruses produced by replication.
The contents (1 mL) of each well was centrifuged for 5 minutes at 1500 r.p.m. (Jouan GR 422 centrifuge) and then the culture supernatant obtained was ultracentrifuged at 4° C., 95000 r.p.m. (Beckman TL100 ultracentrifuge) in order to obtain the viral pellet.
The viral pellet was then placed in a test tube containing 10 μL of NTE buffer to which 0.1% of triton was added, which releases the viral enzymes, particularly RT; the tube was then vortexed, covered with parafilm and held for 10 minutes at 4° C. and then frozen at −20° C.
As many test tubes containing this reaction mixture were prepared as there were samples to be tested. […]
The amount of radioactivity that was measured is proportional to the RT activity present and, consequently, to the number of viruses produced by replication. […]

[2] = Continuous, before, during and after infection
[3] = Continuous, before, during and after infection, 0.4 μm

3′-azidothymidine [AZT]
Number of Syncitia in the Culture (wells), J3 (BRU virus (clade B); After infection): −
Number of Syncitia in the Culture (wells), J4 (BRU virus (clade B); After infection): −
Number of Syncitia in the Culture (wells), J5 (BRU virus (clade B); After infection): −
Number of Syncitia in the Culture (wells), J6 (BRU virus (clade B); After infection): −
Number of Syncitia in the Culture (wells), J7 (BRU virus (clade B); After infection): −
Number of Syncitia in the Culture (wells), J3 (BRU virus (clade B); Before infection): −
Number of Syncitia in the Culture (wells), J4 (BRU virus (clade B); Before infection): (+)
Number of Syncitia in the Culture (wells), J5 (BRU virus (clade B); Before infection): ++ and +
Number of Syncitia in the Culture (wells), J6 (BRU virus (clade B); Before infection): ++T and ++
Number of Syncitia in the Culture (wells), J7 (BRU virus (clade B); Before infection): ++T
Number of Syncitia in the Culture (wells), J3 (BRU virus (clade B); [2]): −
Number of Syncitia in the Culture (wells), J4 (BRU virus (clade B); [2]): −
Number of Syncitia in the Culture (wells), J5 (BRU virus (clade B); [2]): −
Number of Syncitia in the Culture (wells), J6 (BRU virus (clade B); [2]): −
Number of Syncitia in the Culture (wells), J7 (BRU virus (clade B); [2]): −
Number of Syncitia in the Culture (wells), J3 (BRU virus (clade B); During infection): −
Number of Syncitia in the Culture (wells), J4 (BRU virus (clade B); During infection): (+)
Number of Syncitia in the Culture (wells), J5 (BRU virus (clade B); During infection): +
Number of Syncitia in the Culture (wells), J6 (BRU virus (clade B); During infection): ++
Number of Syncitia in the Culture (wells), J7 (BRU virus (clade B); During infection): ++T
Number of Syncitia in the Culture (wells), J3 (NDK virus; After infection, 0.4 μm): −
Number of Syncitia in the Culture (wells), J4 (NDK virus; After infection, 0.4 μm): −
Number of Syncitia in the Culture (wells), J5 (NDK virus; After infection, 0.4 μm): −
Number of Syncitia in the Culture (wells), J6 (NDK virus; After infection): −
Number of Syncitia in the Culture (wells), J3 (NDK virus; Before infection, 0.4 μg/mL): −
Number of Syncitia in the Culture (wells), J4 (NDK virus; Before infection, 0.4 μg/mL): + and −
Number of Syncitia in the Culture (wells), J5 (NDK virus; Before infection, 0.4 μg/mL): ++ and −
Number of Syncitia in the Culture (wells), J6 (NDK virus; Before infection, 0.4 μg/mL): T and (+)
Number of Syncitia in the Culture (wells), J3 (NDK virus; [3]): −
Number of Syncitia in the Culture (wells), J4 (NDK virus; [3]): −
Number of Syncitia in the Culture (wells), J5 (NDK virus; [3]): −
Number of Syncitia in the Culture (wells), J6 (NDK virus; [2]): −
Number of Syncitia in the Culture (wells), J3 (NDK virus; During infection, 0.4 μm): −
Number of Syncitia in the Culture (wells), J4 (NDK virus; During infection, 0.4 μm): −
Number of Syncitia in the Culture (wells), J5 (NDK virus; During infection, 0.4 μm): −
Number of Syncitia in the Culture (wells), J6 (NDK virus; During infection): −
Number of cells per mL, D3 ([1]; day 3): 2.7 10^6 Cell/mL and 3.3 10^6 Cell/mL
Number of cells per mL, D10 ([1]; day 10): 0.4 10^6 Cell/mL and 0.8 10^6 Cell/mL
